In ChEMBL document CHEMBL1909046, “DrugMatrix in vitro pharmacology data”:

Tests used:
[1] = DRUGMATRIX: Tumor Necrosis Factor (TNF), Non-Selective radioligand binding (ligand: [125I] TNF-alpha); assay type: cell membranes, Membrane; details: u-937; Not Active = under 50% inhibition at 10 µM
[2] = DRUGMATRIX: Phosphodiesterase PDE4 enzyme inhibition (substrate: [3H]cAMP + cAMP); details: u-937; Not Active = under 50% inhibition at 10 µM
Substance-K receptor = target: T1, Substance-K receptor (Homo sapiens, UniProt P21452); assay type: cell membranes, CHO, Membrane; details: cho; note: in other assays of this panel Not Active means under 50% inhibition at 10 µM
T1 sequence (P21452 whole entry): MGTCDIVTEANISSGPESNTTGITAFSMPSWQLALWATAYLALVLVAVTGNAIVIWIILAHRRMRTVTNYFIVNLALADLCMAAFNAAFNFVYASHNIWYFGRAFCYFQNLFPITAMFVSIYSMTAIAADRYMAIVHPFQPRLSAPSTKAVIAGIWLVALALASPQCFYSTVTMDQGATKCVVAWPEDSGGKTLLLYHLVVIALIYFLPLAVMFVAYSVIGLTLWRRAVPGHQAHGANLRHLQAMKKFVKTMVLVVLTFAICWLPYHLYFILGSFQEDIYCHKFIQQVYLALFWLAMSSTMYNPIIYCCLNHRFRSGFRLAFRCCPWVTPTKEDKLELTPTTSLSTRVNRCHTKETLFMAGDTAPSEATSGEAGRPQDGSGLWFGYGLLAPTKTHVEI

Adenosine receptor A1 = target: T2, Adenosine receptor A1 (Homo sapiens, UniProt P30542); assay type: cell membranes, CHO, Membrane; details: cho;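 note: radioligand binding assay at the adenosine A1 receptor, with DPCPX serving as the labelled ligand; in other assays of this panel Not Active means under 50% inhibition at 10 µM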
T2 sequence (P30542 whole entry): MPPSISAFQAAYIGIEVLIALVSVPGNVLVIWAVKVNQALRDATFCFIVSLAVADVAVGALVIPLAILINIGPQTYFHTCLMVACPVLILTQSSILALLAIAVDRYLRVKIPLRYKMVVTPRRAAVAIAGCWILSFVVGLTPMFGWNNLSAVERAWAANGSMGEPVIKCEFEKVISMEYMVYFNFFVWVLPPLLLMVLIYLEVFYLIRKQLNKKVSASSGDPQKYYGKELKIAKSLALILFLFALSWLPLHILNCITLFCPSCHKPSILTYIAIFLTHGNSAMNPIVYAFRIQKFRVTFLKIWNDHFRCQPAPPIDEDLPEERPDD

[3] = target: Protein phosphatase 3 catalytic subunit alpha (Homo sapiens, UniProt Q08209); parameters: species or system Escherichia coli;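 note: inhibition of calcineurin (PP2B) enzyme activity, measured with DiFMUP as the substrate; in other assays of this panel Not Active means under 50% inhibition at 10 µM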
[4] = target: T3, Alpha-1B adrenergic receptor (Rattus norvegicus, UniProt P15823); assay: DRUGMATRIX: Alpha-1B adrenergic receptor radioligand binding (ligand: prazosin); assay type: cell membranes, Wistar, Liver, Membrane; details: Not Active = under 50% inhibition at 10 µM
T3 sequence (P15823 whole entry): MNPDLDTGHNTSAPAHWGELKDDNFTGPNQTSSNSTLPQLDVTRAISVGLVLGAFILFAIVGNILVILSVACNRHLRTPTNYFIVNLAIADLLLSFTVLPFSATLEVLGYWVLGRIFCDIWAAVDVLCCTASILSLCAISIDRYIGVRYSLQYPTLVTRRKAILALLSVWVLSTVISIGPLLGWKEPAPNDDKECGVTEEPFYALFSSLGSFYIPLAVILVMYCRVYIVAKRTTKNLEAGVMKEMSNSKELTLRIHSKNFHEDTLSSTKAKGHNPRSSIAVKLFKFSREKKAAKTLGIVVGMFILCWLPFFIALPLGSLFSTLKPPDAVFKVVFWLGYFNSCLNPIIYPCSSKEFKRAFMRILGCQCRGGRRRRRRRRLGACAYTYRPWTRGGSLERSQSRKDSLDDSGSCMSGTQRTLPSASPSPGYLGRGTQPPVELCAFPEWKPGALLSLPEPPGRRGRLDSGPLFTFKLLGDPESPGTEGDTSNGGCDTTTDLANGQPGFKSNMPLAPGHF

CCN(C(C)=O)c1cccc(-c2ccnc3c(C#N)cnn23)c1 [ZALEPLON]
Not Active: IC50 [1] | Ki [1] | IC50 [2] | Ki [2] | IC50 (Substance-K receptor) | IC50 (Adenosine receptor A1) | IC50 [3] | IC50 [4]

COBALTOUS CHLORIDE
Not Active: IC50 [1] | Ki [1] | IC50 [2] | Ki [2] | IC50 (Substance-K receptor) | Ki (Substance-K receptor) | IC50 (Adenosine receptor A1) | Ki (Adenosine receptor A1) | IC50 [3] | Ki [3] | IC50 [4] | Ki [4]

COLISTIN
Not Active: IC50 [1] | Ki [1] | IC50 [2] | Ki [2] | IC50 (Substance-K receptor) | Ki (Substance-K receptor) | IC50 (Adenosine receptor A1) | Ki (Adenosine receptor A1) | IC50 [3] | Ki [3] | IC50 [4] | Ki [4]
